# Activity calls are given as the source filed them. The rule behind the calls is not given here.
# Tests used:
# HEK293 [1] = assay: Cytotoxicity against HEK293 cells assessed as reduction in cell viability at 100 uM incubated for 16 hrs by MTT assay relative to control; format: toxicity, cell-based; conditions: human, hek293, 16 h
# Pseudomonas aeruginosa [2] = assay: Antibiofilm activity against Pseudomonas aeruginosa assessed as biofilm eradication at 4 times MIC measured after 24 hrs by crystal violet staining based analysis; format: functional
# Pseudomonas aeruginosa [3] = assay: Antibacterial activity against Pseudomonas aeruginosa PAO1 overexpressing fpvA mutant up to 8 times MIC; format: functional, organism-based
# Pseudomonas aeruginosa [4] = assay: Antibiofilm activity against Pseudomonas aeruginosa PAO1 assessed as reduction in biofilm formation at 1/4 times MIC measured for 24 hrs in presence of 40 uM of FeCl3 by crystal violet staining; format: functional; set-up: scale not given: the % may be the effect or the level left
# Pseudomonas aeruginosa [5] = assay: Antibacterial activity against wild type Pseudomonas aeruginosa PAO1 […] delta pvdS up to 8 times MIC; format: functional, organism-based
# Pseudomonas aeruginosa [6] = assay: Antivirulence activity against Pseudomonas aeruginosa PAO1 assessed as reduction in pyocyanin level at 4.27 uM incubated for 24 hrs by absorbance based assay relative to control; format: functional; set-up: scale not given: the % may be the effect or the level left
# Pseudomonas aeruginosa [7] = assay: Selectivity ratio of MIC for antibacterial activity against Pseudomonas aeruginosa PAO1 overexpressing fpvA mutant up to 8 times MIC to MIC for antibacterial activity against Pseudomonas aeruginosa PAO1 up to 8 times MIC; format: functional
# Pseudomonas aeruginosa [8] = assay: Inhibition of swimming motility in Pseudomonas aeruginosa PAO1 at 4.27 uM incubated for 16 hrs relative to control; format: functional
# Pseudomonas aeruginosa [9] = assay: Inhibition of swarming motility in Pseudomonas aeruginosa PAO1 at 4.27 uM incubated for 16 hrs relative to control; format: functional
# Pseudomonas aeruginosa [10] = assay: Antivirulence activity against Pseudomonas aeruginosa PAO1 assessed as reduction in rhamnolipid level incubated for 24 hrs by absorbance based assay; format: functional, organism-based
# Pseudomonas aeruginosa [11] = assay: Antibiofilm activity against Pseudomonas aeruginosa assessed as reduction in biofilm eradication at 1/4 times MIC measured after 24 hrs by crystal violet staining based analysis; format: functional, organism-based
# Pseudomonas aeruginosa [12] = assay: Antibacterial activity against Pseudomonas aeruginosa 1129 assessed as bacterial growth inhibition by CLSI based broth microdilution method; format: functional
# Pseudomonas aeruginosa [13] = assay: Antibacterial activity against Pseudomonas aeruginosa 1167 assessed as bacterial growth inhibition by CLSI based broth microdilution method; format: functional
# Pseudomonas aeruginosa [14] = assay: Potency index, ratio of ciprofloxacin MIC to test compound MIC for antibiofilm activity against Pseudomonas aeruginosa PAO1 assessed as […] biofilm biomass at 1/2 times MIC measured for 24 hrs by crystal violet staining; format: functional
# Pseudomonas aeruginosa [15] = assay: Antibiofilm activity against Pseudomonas aeruginosa PAO1 assessed as […] biofilm biomass at 1/2 times MIC measured for 24 hrs by crystal violet staining; format: functional
# Pseudomonas aeruginosa [16] = assay: Antibacterial activity against Pseudomonas aeruginosa FB assessed as bacterial growth inhibition by CLSI based broth microdilution method; format: functional
# Pseudomonas aeruginosa [17] = assay: Inhibition of twitching motility in Pseudomonas aeruginosa PAO1 at 4.27 uM incubated for 16 hrs relative to control; format: functional
# Pseudomonas aeruginosa [18] = assay: Potency index, ratio of ciprofloxacin MIC to test compound MIC for antibiofilm activity against Pseudomonas aeruginosa PAO1 measured for 24 hrs by crystal violet staining; format: functional
# Pseudomonas aeruginosa [19] = assay: Inhibition of twitching motility in Pseudomonas aeruginosa PAO1 incubated for 16 hrs; format: functional, organism-based; conditions: dose 4.27 µM
# Pseudomonas aeruginosa [20] = assay: Antibiofilm activity against Pseudomonas aeruginosa PAO1 assessed as reduction in biofilm formation at 1/4 times MIC measured for 24 hrs in presence of 10 uM of FeCl3 by crystal violet staining; format: functional; set-up: scale not given: the % may be the effect or the level left
# Staphylococcus aureus [21] = assay: Antibacterial activity against methicillin-resistant Staphylococcus aureus ATCC 43300 assessed as bacterial growth inhibition by CLSI based broth microdilution method; format: functional
# [22] = Toxicity in Caenorhabditis elegans infected with Pseudomonas aeruginosa PAO1 assessed as nematode survival at MIC incubated at 48 hrs relative to control
# Pseudomonas aeruginosa [23] = assay: Antibiofilm activity against Pseudomonas aeruginosa PAO1 assessed as reduction in biofilm formation at MIC measured for 24 hrs in presence of 10 uM of FeCl3 by crystal violet staining; format: functional; set-up: scale not given: the % may be the effect or the level left
# Pseudomonas aeruginosa [24] = assay: Antibiofilm activity against Pseudomonas aeruginosa PAO1 assessed as reduction in biofilm formation at 1/2 times MIC measured for 24 hrs in presence of 10 uM of FeCl3 by crystal violet staining; format: functional; set-up: scale not given: the % may be the effect or the level left
# Pseudomonas aeruginosa [25] = assay: Antivirulence activity against Pseudomonas aeruginosa PAO1 assessed as reduction in rhamnolipid level at 4.27 uM incubated for 24 hrs by absorbance based assay relative to control; format: functional; set-up: scale not given: the % may be the effect or the level left
# Pseudomonas aeruginosa [26] = assay: Antivirulence activity against Pseudomonas aeruginosa PAO1 assessed as reduction in pyocyanin level incubated for 24 hrs by absorbance based assay; format: functional, organism-based
# Pseudomonas aeruginosa [27] = assay: Antivirulence activity against Pseudomonas aeruginosa PAO1 assessed as reduction in pyocyanin level in flask incubated for 24 hrs by absorbance based assay relative to control; format: functional, organism-based
# Pseudomonas aeruginosa [28] = assay: Antibiofilm activity against Pseudomonas aeruginosa PAO1 assessed as […] biofilm biomass at MIC measured for 24 hrs by crystal violet staining; format: functional
# Pseudomonas aeruginosa [29] = assay: Antibiofilm activity against Pseudomonas aeruginosa PAO1 assessed as reduction in biofilm formation at 1/2 times MIC measured for 24 hrs in presence of 40 uM of FeCl3 by crystal violet staining; format: functional; set-up: scale not given: the % may be the effect or the level left
# Pseudomonas aeruginosa [30] = assay: Antibiofilm activity against Pseudomonas aeruginosa PAO1 assessed as […] biofilm biomass at 1/4 times MIC measured for 24 hrs by crystal violet staining; format: functional
# Pseudomonas aeruginosa [31] = assay: Potency index, ratio of ciprofloxacin MIC to test compound MIC for antibacterial activity against Pseudomonas aeruginosa PAO1 assessed as bacterial growth inhibition by CLSI based broth microdilution method; format: functional
# A549 = assay: Cytotoxicity against human A549 cells assessed as reduction in cell viability up to 100 uM incubated for 16 hrs by MTT assay; format: toxicity, cell-based; conditions: a549, 16 h
# Pseudomonas aeruginosa [32] = assay: Antibacterial activity against wild type Pseudomonas aeruginosa PAO1 up to 8 times MIC; format: functional, organism-based
# Pseudomonas aeruginosa [33] = assay: Antibiofilm activity against Pseudomonas aeruginosa PAO1 measured for 24 hrs by crystal violet staining; format: functional
# Pseudomonas aeruginosa [34] = assay: Antibiofilm activity against Pseudomonas aeruginosa PAO1 assessed as reduction in biofilm formation at MIC measured for 24 hrs in presence of 40 uM of FeCl3 by crystal violet staining; format: functional; set-up: scale not given: the % may be the effect or the level left
# HEK293 [35] = assay: Cytotoxicity against HEK293 cells assessed as reduction in cell viability at 100 uM incubated for 16 hrs by MTT assay; format: toxicity, cell-based; conditions: human, hek293, 16 h
# [36] = Toxicity in Caenorhabditis elegans infected with Pseudomonas aeruginosa PAO1 assessed as nematode survival at MIC incubated at 24 hrs relative to control
# Staphylococcus aureus [37] = assay: Antibacterial activity against Staphylococcus aureus ATCC 25923 assessed as bacterial growth inhibition by CLSI based broth microdilution method; format: functional
# Pseudomonas aeruginosa [38] = assay: Antibacterial activity against Pseudomonas aeruginosa PAO1 assessed as bacterial growth inhibition by CLSI based broth microdilution method; format: functional
# Staphylococcus aureus [39] = assay: Antibacterial activity against methicillin-resistant Staphylococcus aureus ATCC 515992 assessed as bacterial growth inhibition by CLSI based broth microdilution method; format: functional
# Staphylococcus aureus [40] = assay: Antibacterial activity against methicillin-resistant Staphylococcus aureus ATCC 513045 assessed as bacterial growth inhibition by CLSI based broth microdilution method; format: functional
# [41] = Toxicity in Caenorhabditis elegans infected with Pseudomonas aeruginosa PAO1 assessed as nematode survival at MIC incubated at 12 hrs
# Pseudomonas aeruginosa [42] = assay: Antibacterial activity against Pseudomonas aeruginosa 1121 assessed as bacterial growth inhibition by CLSI based broth microdilution method; format: functional
compound,measurement,setting,value
O=C(O)c1cn(C2CC2)c2cc(N3CCNCC3)c(F)cc2c1=O [CIPROFLOXACIN],Activity,HEK293 [1],40%
same,Activity,Pseudomonas aeruginosa [2],42.6%
same,Activity,Pseudomonas aeruginosa [3],Active
same,Activity,Pseudomonas aeruginosa [4],89.5%
Cn1cc(O)c(=O)cc1COC(=O)c1cn(C2CC2)c2cc(N3CCNCC3)c(F)cc2c1=O,Activity,Pseudomonas aeruginosa [5],inactive
same,Activity,Pseudomonas aeruginosa [6],~20%
same,Ratio,Pseudomonas aeruginosa [7],2
same,inhibition at 4.27 µM,Pseudomonas aeruginosa [8],64.9%
same,inhibition at 4.27 µM,Pseudomonas aeruginosa [9],53.7%
same,Activity,Pseudomonas aeruginosa [10],Active
same,Activity,Pseudomonas aeruginosa [11],Active
same,MIC,Pseudomonas aeruginosa [12],4.27 µM
same,Activity,Pseudomonas aeruginosa [2],75.7%
same,MIC,Pseudomonas aeruginosa [13],2.13 µM
same,Ratio,Pseudomonas aeruginosa [14],3
same,Activity,Pseudomonas aeruginosa [15],38.3%
same,MIC,Pseudomonas aeruginosa [16],2.13 µM
same,inhibition at 4.27 µM,Pseudomonas aeruginosa [17],44.6%
same,Ratio,Pseudomonas aeruginosa [18],8
same,inhibition,Pseudomonas aeruginosa [19],Dose-dependent-effect
same,Activity,Pseudomonas aeruginosa [20],42.4%
same,MIC,Staphylococcus aureus [21],2.13 µM
same,survival at 48 h,[22],50%
same,Activity,Pseudomonas aeruginosa [23],52.8%
same,Activity,Pseudomonas aeruginosa [24],38.3%
same,Activity,Pseudomonas aeruginosa [25],~20%
same,Activity,Pseudomonas aeruginosa [26],Active
same,Activity,Pseudomonas aeruginosa [27],Active
same,Activity,Pseudomonas aeruginosa [28],52.8%
same,Activity,Pseudomonas aeruginosa [29],204.8%
same,Activity,Pseudomonas aeruginosa [30],42.4%
same,Ratio,Pseudomonas aeruginosa [31],3
same,Activity,A549,Non-toxic
same,Activity,Pseudomonas aeruginosa [32],inactive
same,MIC,Pseudomonas aeruginosa [33],8.54 µM
same,Activity,Pseudomonas aeruginosa [34],179.6%
same,Activity,HEK293 [35],Non-toxic
same,Activity,[36],Toxic
same,MIC,Staphylococcus aureus [37],4.27 µM
same,MIC,Pseudomonas aeruginosa [38],1.07 µM
same,MIC,Staphylococcus aureus [39],> 200 µM
same,MIC,Staphylococcus aureus [40],4.27 µM
same,Activity,[41],Non-toxic
same,Activity,Pseudomonas aeruginosa [4],197.5%
same,MIC,Pseudomonas aeruginosa [42],2.13 µM
COC(=O)c1cn(C2CC2)c2cc(N3CCNCC3)c(F)cc2c1=O,inhibition,Pseudomonas aeruginosa [8],inactive
same,inhibition,Pseudomonas aeruginosa [9],inactive
same,MIC,Pseudomonas aeruginosa [12],> 200 µM
same,MIC,Pseudomonas aeruginosa [13],185 µM
same,Activity,Pseudomonas aeruginosa [15],145.2%
same,MIC,Pseudomonas aeruginosa [16],> 200 µM
same,inhibition,Pseudomonas aeruginosa [17],inactive
same,MIC,Staphylococcus aureus [21],> 200 µM
same,Activity,Pseudomonas aeruginosa [28],109.7%
same,Activity,Pseudomonas aeruginosa [30],122.4%
same,MIC,Pseudomonas aeruginosa [33],185 µM
same,MIC,Staphylococcus aureus [37],> 200 µM
same,MIC,Pseudomonas aeruginosa [38],185 µM
same,MIC,Staphylococcus aureus [39],> 200 µM
same,MIC,Staphylococcus aureus [40],> 200 µM
same,MIC,Pseudomonas aeruginosa [42],> 200 µM
Cn1cc(O)c(=O)cc1CNC(=O)c1cn(C2CC2)c2cc(N3CCNCC3)c(F)cc2c1=O,MIC,Pseudomonas aeruginosa [12],16.6 µM
same,MIC,Pseudomonas aeruginosa [13],8.31 µM
same,Activity,Pseudomonas aeruginosa [15],82.4%
same,MIC,Pseudomonas aeruginosa [16],8.31 µM
same,MIC,Staphylococcus aureus [21],16.6 µM
same,Activity,Pseudomonas aeruginosa [28],71.6%
same,Activity,Pseudomonas aeruginosa [30],88.5%
same,Ratio,Pseudomonas aeruginosa [31],3
same,MIC,Pseudomonas aeruginosa [33],68.5 µM
same,MIC,Staphylococcus aureus [37],16.6 µM
same,MIC,Pseudomonas aeruginosa [38],8.31 µM
same,MIC,Staphylococcus aureus [39],> 200 µM
same,MIC,Staphylococcus aureus [40],33.2 µM
same,MIC,Pseudomonas aeruginosa [42],16.6 µM
Cc1cc(=O)c(O)c(CNC(=O)c2cn(C3CC3)c3cc(N4CCNCC4)c(F)cc3c2=O)n1C,MIC,Pseudomonas aeruginosa [12],34.2 µM
same,MIC,Pseudomonas aeruginosa [13],17.1 µM
same,Activity,Pseudomonas aeruginosa [15],78.1%
same,MIC,Pseudomonas aeruginosa [16],68.5 µM
same,MIC,Staphylococcus aureus [21],34.2 µM
same,Activity,Pseudomonas aeruginosa [28],75.3%
same,Activity,Pseudomonas aeruginosa [30],93.6%
same,MIC,Pseudomonas aeruginosa [33],66.5 µM
same,MIC,Staphylococcus aureus [37],34.2 µM
same,MIC,Pseudomonas aeruginosa [38],17.1 µM
same,MIC,Staphylococcus aureus [39],> 200 µM
same,MIC,Staphylococcus aureus [40],68.5 µM
same,MIC,Pseudomonas aeruginosa [42],68.5 µM
